The source of these data is patent US9216991B2 (Ares Trading S.A., priority 2012, dated 2015).

The IC50 is the midpoint of a concentration-inhibition curve.

Molecules are shown by their SMILES. Where a name gives a salt, the structure may show the parent alone. Some results are limits rather than exact numbers.

The experiment concerns the target T1, IRAK4 (Homo sapiens, UniProt Q9NWZ3).
T1 construct: His (N); TEV cleavage site (N)
T1 sequence (Q9NWZ3 1-460): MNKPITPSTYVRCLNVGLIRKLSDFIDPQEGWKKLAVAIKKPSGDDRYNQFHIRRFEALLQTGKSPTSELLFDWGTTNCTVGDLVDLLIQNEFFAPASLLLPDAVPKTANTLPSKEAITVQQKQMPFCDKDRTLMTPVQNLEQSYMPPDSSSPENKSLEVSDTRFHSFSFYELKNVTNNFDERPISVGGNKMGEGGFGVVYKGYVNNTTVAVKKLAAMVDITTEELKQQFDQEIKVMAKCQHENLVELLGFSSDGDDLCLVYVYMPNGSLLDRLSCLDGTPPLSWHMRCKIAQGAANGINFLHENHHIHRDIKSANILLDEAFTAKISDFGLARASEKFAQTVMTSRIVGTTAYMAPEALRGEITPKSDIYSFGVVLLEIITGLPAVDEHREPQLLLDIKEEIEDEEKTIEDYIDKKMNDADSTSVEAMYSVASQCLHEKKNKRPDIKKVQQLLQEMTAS
Put plainly: IRAK4 Enzymatic Assay. The class given is biochemical. The settings on record: His-TEV-IRAK4 20 ng/well, ATP 2 μM, STK1-biotin peptide 300 nM, 3 hours at 30° C., FlashPlate radioactivity. As for the experimental part: IRAK4 is a human purified recombinant enzyme (His-TEV-IRAK1 (194-712)
IRAK4 hydrolyses ATP, autophosphorylates and phosphorylates a Serine/Threonine generic peptidic substrate (STK: 61ST1BLC from CisBio International based in Bagnols/Cèze FR).
Measurement of IRAK-4 inhibition is performed in streptavidin coated 384 well FlashPlate (PerkinElmer #SMP410A). His-TEV-IRAK4 (20 ng/well), ATP (2 μM, [^33P]ATP 0.25 μCi/well), STK1-biotin peptide (300 nM) and compounds in DMSO (range of concentrations from 20 μM to 1nM) or controls (2% DMSO) are incubated for 3 hours at 30° C. in assay buffer: Hepes pH7.0 50 mM, Fatty acid-free BSA 0.1%, Dithiothreitol DTT 2 mM, MgCl2 10 mM, EGTA 0.5 mM, Tween-20 0.01%, MnCl2 5 mM.
Kinase reaction is stopped by addition of EDTA. Supernatant is discarded, plates are washed three times with 150 mM NaCl and radioactivity is then measured in a Microbeta Trilux reader.
In the case of `Cn1cc(-c2cccc(-c3ncc(-c4cnn([C@H]5CC[C@H](C(=O)NCC(C)(C)O)CC5)c4)cn3)c2)cn1` [Example 227, trans-4-(4-{2-[3-(1-Methyl-1H-pyrazol-4-yl)-phenyl]-pyrimidin-5-yl}-pyrazol-1-yl)-cyclohexanecarboxylic acid (2-hydroxy-2-methyl-propyl)-amide], the IC50 is under 100 nM.

For the molecule `CC(=O)N1[C@@H]2CC[C@H]1CC(n1cc(-c3cnc(-c4cccc(-c5cnn(C)c5)c4)nc3)cn1)C2` (stereo partly drawn) [Example 119, 1-[(1R,5S)-3-(4-{2-[3-(1-Methyl-1H-pyrazol-4-yl)-phenyl]-pyrimidin-5-yl}-pyrazol-1-yl)-8-aza-bicyclo[3.2.1]oct-8-yl]-ethanone], the half-maximal inhibitory concentration (IC50) lay in the range of 100 to 1000 nM.

Regarding `Cn1cc(-c2cccc(-c3ncc(-c4cnn(C5COC5)c4)cn3)c2)cn1` [Example 141, 2-[3-(1-Methyl-1H-pyrazol-4-yl)-phenyl]-5-(1-oxetan-3-yl-1H-pyrazol-4-yl)-pyrimidine], the IC50 lay within 100 to 1000 nM.

Turning to `Cn1cc(-c2cccc(-c3ncc(-c4cnn(C5CCCC(=O)C5)c4)cn3)c2)cn1` (stereo not drawn) [Example 195, 3-(4-{2-[3-(1-Methyl-1H-pyrazol-4-yl)-phenyl]-pyrimidin-5-yl}-pyrazol-1-yl)-cyclohexanone], the IC50 fell in the range of 100 to 1000 nM.

Regarding `CN1CCC[C@H]1C(=O)N1CCC(n2cc(-c3cnc(-c4cccc(-c5cnn(C)c5)c4)nc3)cn2)CC1` [Example 123, [4-(4-{2-[3-(1-Methyl-1H-pyrazol-4-yl)-phenyl]-pyrimidin-5-yl}-pyrazol-1-yl)-piperidin-1-yl]-((S)-1-methyl-pyrrolidin-2-yl)-methanone], the IC50 lay in the range of 100 to 1000 nM.

In the case of `COC1CCN(C(=O)Cn2cc(-c3cnc(-c4cccc(-c5cnn(C)c5)c4)nc3)cn2)C1` (stereo not drawn) [Example 90, 1-(3-Methoxy-pyrrolidin-1-yl)-2-(4-{2-[3-(1-methyl-1H-pyrazol-4-yl)-phenyl]-pyrimidin-5-yl}-pyrazol-1-yl)-ethanone], the IC50 was 100 to 1000 nM.

Regarding `COCCO[C@H]1CC[C@H](n2cc(-c3cnc(-c4cccc(-c5cnn(C)c5)c4)nc3)cn2)CC1` [Example 217, trans-5-{1-[4-(2-Methoxy-ethoxy)-cyclohexyl]-1H-pyrazol-4-yl}-2-[3-(1-methyl-1H-pyrazol-4-yl)-phenyl]-pyrimidine], the IC50 was under 100 nM.

As for `COCC(=O)N1CCC(n2cc(-c3cnc(-c4cccc(-c5cnn(C)c5)c4)nc3)cn2)CC1` [Example 105, 2-Methoxy-1-[4-(4-{2-[3-(1-methyl-1H-pyrazol-4-yl)-phenyl]-pyrimidin-5-yl}-pyrazol-1-yl)-piperidin-1-yl]-ethanone], the IC50 was 100 to 1000 nM.

As for `CC1CN(C(=O)Cn2cc(-c3cnc(-c4cccc(-c5cnn(C)c5)c4)nc3)cn2)CCO1` (stereo not drawn) [Example 80, 1-(2-Methyl-morpholin-4-yl)-2-(4-{2-[3-(1-methyl-1H-pyrazol-4-yl)-phenyl]-pyrimidin-5-yl}-pyrazol-1-yl)-ethanone], the IC50 was in the range of 100 to 1000 nM.

Take `Cn1cc(-c2cccc(-c3ncc(-c4cnn(C5CCN(C(=O)C(O)C(F)(F)F)CC5)c4)cn3)c2)cn1` (stereo not drawn) [Example 115, 3,3,3-Trifluoro-2-hydroxy-1-[4-(4-{2-[3-(1-methyl-1H-pyrazol-4-yl)-phenyl]-pyrimidin-5-yl}-pyrazol-1-yl)-piperidin-1-yl]-propan-1-one]: the IC50 lay in the range of 100 to 1000 nM.

As to `Cn1cc(-c2cccc(-c3ncc(-c4cnn(C5CNC5)c4)cn3)c2)cn1` [Example 26, 5-(1-Azetidin-3-yl-1H-pyrazol-4-yl)-2-[3-(1-methyl-1H-pyrazol-4-yl)-phenyl]-pyrimidine hydrochloride], the half-inhibitory concentration (IC50) is 1000 to 5000 nM.

Consider `Cn1cc(-c2cccc(-c3ncc(-c4cnn(CC(=O)N5CCC[C@H]5CO)c4)cn3)c2)cn1` [Example 81, 1-((S)-2-Hydroxymethyl-pyrrolidin-1-yl)-2-(4-{2-[3-(1-methyl-1H-pyrazol-4-yl)-phenyl]-pyrimidin-5-yl}-pyrazol-1-yl)-ethanone], for which the IC50 fell in the range of 100 to 1000 nM.

Turning to `CN1CCN(C(=O)Cn2cc(-c3cnc(-c4cccc(-c5cnn(C)c5)c4)nc3)cn2)CC1` [Example 51, 1-(4-Methyl-piperazin-1-yl)-2-(4-{2-[3-(1-methyl-1H-pyrazol-4-yl)-phenyl]-pyrimidin-5-yl}-pyrazol-1-yl)-ethanone hydrochloride], the IC50 is 100 to 1000 nM.

As to `CN(C)C(=O)C1CC2(C1)CC(n1cc(-c3cnc(-c4cccc(-c5cnn(C)c5)c4)nc3)cn1)C2` (stereo not drawn) [Example 222, 6-(4-{2-[3-(1-Methyl-1H-pyrazol-4-yl)-phenyl]-pyrimidin-5-yl}-pyrazol-1-yl)-spiro[3.3]heptane-2-carboxylic acid dimethylamide], the IC50 was in the range of 100 to 1000 nM.

Take `C[C@@H](CO)NC(=O)[C@H]1CC[C@H](n2cc(-c3cnc(-c4cccc(-c5cnn(C)c5)c4)nc3)cn2)CC1` [Example 198, Trans-4-(4-{2-[3-(1-Methyl-1H-pyrazol-4-yl)-phenyl]-pyrimidin-5-yl}-pyrazol-1-yl)-cyclohexanecarboxylic acid ((S)-2-hydroxy-1-methyl-ethyl)-amide]: the concentration for half-maximal inhibition (IC50) is under 100 nM.

In the case of `CO[C@H]1CC[C@H](n2cc(-c3cnc(-c4cccc(-c5cnn(C)c5)c4)nc3)cn2)CC1` [Example 253, trans-5-[1-(4-Methoxy-cyclohexyl)-1H-pyrazol-4-yl]-2-[3-(1-methyl-1H-pyrazol-4-yl)-phenyl]-pyrimidine], the half-maximal inhibitory concentration (IC50) is under 100 nM.

For `CNC(=O)C1CC(n2cc(-c3cnc(-c4cccc(-c5cnn(C)c5)c4)nc3)cn2)C1` (stereo not drawn) [Example 157, 3-(4-{2-[3-(1-Methyl-1H-pyrazol-4-yl)-phenyl]-pyrimidin-5-yl}-pyrazol-1-yl)-cyclobutanecarboxylic acid methylamide], the half-maximal inhibitory concentration (IC50) was in the range of 100 to 1000 nM.

On to `CN1CC(C(=O)N2CCC(n3cc(-c4cnc(-c5cccc(-c6cnn(C)c6)c5)nc4)cn3)CC2)CC1=O` (stereo not drawn) [Example 113, 1-Methyl-4-[4-(4-{2-[3-(1-methyl-1H-pyrazol-4-yl)-phenyl]-pyrimidin-5-yl}-pyrazol-1-yl)-piperidine-1-carbonyl]-pyrrolidin-2-one], for which the concentration for half-maximal inhibition (IC50) fell in the range of 100 to 1000 nM.

As to `CC(=O)N1CCC(n2cc(-c3cnc(-c4cccc(-c5cnn(C)c5)c4)nc3)cn2)CC1` [Example 5, 1-[4-(4-{2-[3-(1-Methyl-1H-pyrazol-4-yl)-phenyl]-pyrimidin-5-yl}-pyrazol-1-yl)-piperidin-1-yl]-ethanone], the IC50 was under 100 nM.

`Cn1cc(-c2cccc(-c3ncc(-c4cn(C)nc4CO)cn3)c2)cn1` [Example 155, (1-Methyl-4-{2-[3-(1-methyl-1H-pyrazol-4-yl)-phenyl]-pyrimidin-5-yl}-1H-pyrazol-3-yl)-methanol]: the IC50 was in the range of 1000 to 5000 nM.

As for `Cn1cc(-c2cccc(-c3ncc(-c4cnn([C@H]5CC[C@H](C(=O)NCC#N)CC5)c4)cn3)c2)cn1` [Example 230, trans-4-(4-{2-[3-(1-Methyl-1H-pyrazol-4-yl)-phenyl]-pyrimidin-5-yl}-pyrazol-1-yl)-cyclohexanecarboxylic acid cyanomethyl-amide], the half-inhibitory concentration (IC50) is under 100 nM.

Take `Cn1cc(-c2cccc(-c3ncc(-c4cn[nH]c4)cn3)c2)cn1` [Example 3, 2-[3-(1-methyl-1H-pyrazol-4-yl)phenyl]-5-(1H-pyrazol-4-yl)pyrimidine]: the concentration for half-maximal inhibition (IC50) fell in the range of 100 to 1000 nM.

As to `Cn1cc(-c2cccc(-c3ncc(-c4cnn(C5CCC(C(=O)N6CCO[C@H](CO)C6)CC5)c4)cn3)c2)cn1` (stereo partly drawn) [Example 261, ((S)-2-Hydroxymethyl-morpholin-4-yl)-[4-((S)-4-{2-[3-(1-methyl-1H-pyrazol-4-yl)-phenyl]-pyrimidin-5-yl}-pyrazol-1-yl)-cyclohexyl]-methanone], the half-inhibitory concentration (IC50) was under 100 nM.

`Cn1cc(-c2cccc(-c3ncc(-c4cnn([C@@H]5CCCNC5)c4)cn3)c2)cn1` [Example 183, 2-[3-(1-Methyl-1H-pyrazol-4-yl)-phenyl]-5-((R)-1-piperidin-3-yl-1H-pyrazol-4-yl)-pyrimidine]: the IC50 is 100 to 1000 nM.

As to `Cn1cc(-c2cccc(-c3ncc(-c4cnn(Cc5cccnc5)c4)cn3)c2)cn1` [Example 22, 2-[3-(1-Methyl-1H-pyrazol-4-yl)-phenyl]-5-(1-pyridin-3-ylmethyl-1H-pyrazol-4-yl)-pyrimidine], the IC50 fell in the range of 100 to 1000 nM.

For `CN1[C@@H]2CC[C@H]1C[C@H](n1cc(-c3cnc(-c4cccc(-c5cnn(C)c5)c4)nc3)cn1)C2` [Example 61, (3-exo)-8-Methyl-3-(4-{2-[3-(1-methyl-1H-pyrazol-4-yl)-phenyl]-pyrimidin-5-yl}-pyrazol-1-yl)-8-aza-bicyclo[3.2.1]octane], the IC50 is under 100 nM.

Turning to `Cn1cc(-c2cccc(-c3ncc(-c4cnn(C5CCOC5=O)c4)cn3)c2)cn1` (stereo not drawn) [Example 129, 3-(4-{2-[3-(1-Methyl-1H-pyrazol-4-yl)-phenyl]-pyrimidin-5-yl}-pyrazol-1-yl)-dihydro-furan-2-one], the IC50 lay within 100 to 1000 nM.
